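Grown in 96-well plates, cells were treated for 48 hours with each compound at five concentrations. Insufficient inhibition: endpoint recorded as highest concentration tested. GI50 is the concentration that inhibits growth by half.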 The source made the active and inactive calls. No stated cut-off is given here; in the data, active = GI50 up to about 1.1 µM and inactive = higher.
Columns and labels:
Experiment in all cases: NCI tumour cell line growth inhibition, 48 h
[1] = system: LOX IMVI
[2] = system: UO-31
[3] = system: UACC-62
[4] = system: OVCAR-4
[5] = system: SW-620
[6] = system: RPMI-8226
[7] = system: M14
[8] = system: Malme-3M
[9] = system: KM12
[10] = system: U-251
[11] = system: HT-29
[12] = system: OVCAR-3
[13] = system: A549
[14] = system: 786-0
[15] = system: IGROV-1
[16] = system: HCT-116
[17] = system: SNB-75

Measured: GI50

O=C(c1ccc(NCN2C(=O)CCC2=O)cc1)c1ccc(NCN2C(=O)CCC2=O)cc1
inactive: [1] > 100 µM | [2] > 100 µM | [3] > 100 µM | [4] > 100 µM | [5] 58.5 µM | [6] 20.4 µM | [7] > 100 µM | [8] > 100 µM | [9] > 100 µM | [10] > 100 µM | [11] > 100 µM | [12] > 100 µM | [13] > 100 µM | [14] > 100 µM | [15] > 100 µM | [16] > 100 µM

CC1C[C@@H]2C(=O)NC(=O)[C@@H]2c2c1c1ccccc1n2C (some centres undefined)
inactive: [1] > 100 µM | [2] > 100 µM | [3] > 100 µM | [5] > 100 µM | [6] > 100 µM | [7] > 100 µM | [8] > 100 µM | [9] > 100 µM | [10] > 100 µM | [11] > 100 µM | [12] > 100 µM | [13] > 100 µM | [14] > 100 µM | [15] > 100 µM | [17] > 100 µM

COC1C(CN[N+](=O)CC2OC3OC(C)(C)OC3C2OC)OC2OC(C)(C)OC21 (centres undefined)
inactive: [1] > 100 µM | [2] > 100 µM | [3] > 100 µM | [4] > 100 µM | [5] > 100 µM | [7] > 100 µM | [8] > 100 µM | [9] > 100 µM | [10] > 100 µM | [11] > 100 µM | [12] > 100 µM | [13] > 100 µM | [14] > 100 µM | [15] > 100 µM | [16] > 100 µM | [17] > 100 µM

COc1nc(=O)n(COC(CO)CN2C(=O)c3ccccc3C2=O)cc1Cc1cccc(OCc2ccccc2)c1 (centres undefined)
inactive: [1] 20.1 µM | [2] 16.3 µM | [3] 14.6 µM | [4] 21.8 µM | [5] 42.7 µM | [6] 18.6 µM | [7] 20.4 µM | [9] 28.2 µM | [10] 21.9 µM | [11] 34 µM | [12] 21.9 µM | [13] 23.5 µM | [14] > 10 µM | [15] 24.8 µM | [16] 29.4 µM | [17] 15.5 µM

NC(CCCC(N)P(=O)(O)O)P(=O)(O)O (centres undefined)
inactive: [1] > 100 µM | [2] > 100 µM | [3] > 100 µM | [5] > 100 µM | [6] > 100 µM | [7] > 100 µM | [8] > 100 µM | [9] > 100 µM | [10] > 100 µM | [11] > 100 µM | [12] > 100 µM | [13] > 100 µM | [14] > 100 µM | [15] > 100 µM | [16] > 100 µM | [17] > 100 µM
